{
  "source": "paper PMC5733122",
  "about": "“Purification, Characterization, and Mode of Action of Pentocin JL-1, a Novel Bacteriocin Isolated from Lactobacillus pentosus, against Drug-Resistant Staphylococcus aureus” (BioMed Research International, 2017)",
  "assay": "pH stability, residual antibacterial activity",
  "assay_type": "physicochemical",
  "conditions": "1 h; for Residual inhibitory activity (inhibition zone diameter, mm): 15 μg/mL in 0.05% acetic acid, agar-well diffusion vs MRSA GIM 1.771, mean ± SD, triplicate; for Residual inhibitory activity (inhibition zone diameter, mm) / Residual inhibitory activity (%): readjusted to pH 5.5; for Residual inhibitory activity (%): 15 μg/mL, vs MRSA GIM 1.771, relative to control pH 5.5",
  "protocol": "To determine pH stability, lyophilized purified pentocin JL-1 was dissolved in 0.05% (w/v) acetic acid at 15 μg/mL and was adjusted with 1.0 M HCl or 1.0 M NaOH to different pH values of 2.0, 3.0, 4.0, 5.0, 6.0, 7.0, 8.0, 9.0, and 10.0. Then the above samples were incubated at 37°C for 1 h and were adjusted to pH 5.5 with 1.0 M HCl or 1.0 M NaOH.\nThe residual antibacterial activities of the above samples were calculated using the agar-well diffusion test with MRSA GIM 1.771 as the indicator strain. […] Lyophilized pentocin JL-1 dissolved in 0.05% (w/v) acetic acid at 15 μg/mL with pH 5.5 was used as a control in all assays.",
  "data": [
    {"substance": "VAKVAR [pentocin JL-1, novel bacteriocin produced by Lactobacillus pentosus JL-1, purified by four-step chromatography, molecular mass 2987.23 Da, cationic and hydrophobic peptide]", "values": [
      {"measurement": "pH range tolerated / stable", "setting": "37°C, no significant differences in antimicrobial activity (p > 0.05)", "result": "5–7"},
      {"measurement": "Residual inhibitory activity (inhibition zone diameter, mm)", "setting": "pH 2.0, 37°C", "result": "15.7 ± 1.4", "unit": "mm"},
      {"measurement": "Residual inhibitory activity (%)", "setting": "pH 2.0, 37°C", "result": "65.69^∗ %"},
      {"measurement": "Residual inhibitory activity (inhibition zone diameter, mm)", "setting": "pH 3.0, 37°C", "result": "16.2 ± 1.8", "unit": "mm"},
      {"measurement": "Residual inhibitory activity (%)", "setting": "pH 3.0, 37°C", "result": "67.78^∗ %"},
      {"measurement": "Residual inhibitory activity (inhibition zone diameter, mm)", "setting": "pH 4.0, 37°C", "result": "16.8 ± 1.2", "unit": "mm"},
      {"measurement": "Residual inhibitory activity (%)", "setting": "pH 4.0, 37°C", "result": "70.29^∗ %"},
      {"measurement": "Residual inhibitory activity (inhibition zone diameter, mm)", "setting": "pH 5.0, 37°C", "result": "23.9 ± 0.4", "unit": "mm"},
      {"measurement": "Residual inhibitory activity (%)", "setting": "pH 5.0, 37°C", "result": 100.00, "unit": "%"},
      {"measurement": "Residual inhibitory activity (inhibition zone diameter, mm)", "setting": "pH 6.0, 37°C", "result": "23.9 ± 0.8", "unit": "mm"},
      {"measurement": "Residual inhibitory activity (%)", "setting": "pH 6.0, 37°C", "result": 100.00, "unit": "%"},
      {"measurement": "Residual inhibitory activity (inhibition zone diameter, mm)", "setting": "pH 7.0, 37°C", "result": "23.6 ± 0.6", "unit": "mm"},
      {"measurement": "Residual inhibitory activity (%)", "setting": "pH 7.0, 37°C", "result": 98.74, "unit": "%"},
      {"measurement": "Residual inhibitory activity (inhibition zone diameter, mm)", "setting": "pH 8.0, 37°C", "result": "14.6 ± 0.3", "unit": "mm"},
      {"measurement": "Residual inhibitory activity (%)", "setting": "pH 8.0, 37°C", "result": "61.09^∗ %"},
      {"measurement": "Residual inhibitory activity (inhibition zone diameter, mm)", "setting": "pH 9.0, 37°C", "result": "12.9 ± 0.9", "unit": "mm"},
      {"measurement": "Residual inhibitory activity (%)", "setting": "pH 9.0, 37°C", "result": "53.97^∗ %"},
      {"measurement": "Residual inhibitory activity (inhibition zone diameter, mm)", "setting": "pH 10.0, 37°C", "result": "12.5 ± 1.6", "unit": "mm"},
      {"measurement": "Residual inhibitory activity (%)", "setting": "pH 10.0, 37°C", "result": "52.30^∗ %"}
    ]}
  ]
}
